Test [1] has as its system mouse model of stabilized unilateral tibial fracture. Kind of test: Open field activity after tibial fracture. It counts as in vivo. On the procedure: (§1) The aim of the experiments described herein was to examine the effectiveness of local delivery of adenosine in tibial bone injury to concurrently attenuate fracture/post-surgical pain while promoting healing. All animal work was performed in compliance with the National Institutes of Health (NIH) and institutional guidelines, and the fracture surgery and biomaterial implantation protocols approved by the Institutional Animal Care and Use Committee at Duke University (Protocol Registry Number A151-20-07) were followed. C57BL/6J mice were used to study fracture nociception and the effect of local delivery of adenosine to mitigate pain and promote bone regeneration. Lepr-cre; tdTomato reporter mice were used for tracing of LepR(+) lineage cells after fracture. To determine the effect of adenosine on pain and healing, fracture surgeries were performed and treated immediately with PEGDA-6ACA-PBA macroporous hydrogels loaded with adenosine as treatment group or without adenosine as control group (Zeng Y, et al. (2020) Adv Mater. 32:e1906022). Behavioral tests for pain and limb function were assessed by weight bearing and open field locomotion. A priori power analysis was used to estimate the sample size requiring a statistical power (1−β) of 80% at the significance level of α=5%. On the basis of the power calculation, the indicated number was 8 animals per group for fracture pain and 4 animals per group for fracture healing. Ten animals per group were used to study the effect of adenosine on fracture pain, and 5 animals per group were used to examine the effect of adenosine on fracture healing. The exclusion criteria for experiments were animals that died due to the surgical procedures or shift of the intramedullary pin identified after experimental endpoint post-mortem. No randomization was used and researchers were not blinded. Measurement of adenosine in the circulation was performed by using an adenosine assay. The in vitro functional activity of DRG neurons was assessed by calcium and membrane potential imaging and the expression of proteins were assessed by histology or immunofluorescence imaging, and gene expression by RT-qPCR. Fracture healing was analyzed by microCT and histology. The study design and timeline of animal procedures (pin placement, surgery, therapeutic intervention with and without adenosine, and behavioral tests) are illustrated in FIG. 10A (weight bearing) and FIG. 10A (open field locomotion).
(§2) In all experiments, 12-week-old to 16-week-old C57BL/6J male mice (Jackson Laboratory, Bar Harbor, ME) and Lepr-cre; tdTomato reporter mice were used. The average mouse weight was 25 grams and mice were housed in groups of four to five, and kept on a 12-hr light-dark cycle with lights off at 1800 hr. All animals had ad libitum access to chow (PMI LabDiet 5001) and water. Fracture surgeries were performed as previously described (Zeng Y, et al. (2020) Adv Mater. 32:e1906022). Animals were anesthetized by isoflurane and injected with 1 mg/kg buprenorphine SR-LAB (ZooPharm, Laramie, WY). Each mouse was then placed in a supine position with the right tibia disinfected. After skin incision and reflection, proximal to the right knee, a 0.7-mm pin was inserted from the tibial plateau through the medullary cavity to stabilize the tibia, and a cut was made at the tibial midshaft to induce a transverse fracture. Bupivacaine (0.5%; Hospira, Lake Forest, IL) at ˜1 mg/kg body weight was applied at the surgical site following wound closure using 2 reflex clips (5 mm). For animals treated with control and adenosine-loaded macroporous hydrogels, macroporous hydrogels measuring approximately 5 mm (length)×3 mm (width)×1 mm (thick) containing either 1.05±0.1 mg adenosine (ADO) or no adenosine (CTL) were implanted adjacent to the fractures immediately. […] The animals were treated with the macroporous hydrogels with or without adenosine immediately following the fracture. […]

Test [2] deals with fractured tibiae. Kind of test: MicroCT of fractured tibiae (fracture healing). Format: in vivo, mouse. Conditions: 21 days post-fracture. The protocol: In all experiments, 12-week-old to 16-week-old C57BL/6J male mice (Jackson Laboratory, Bar Harbor, ME) and Lepr-cre; tdTomato reporter mice were used. The average mouse weight was 25 grams and mice were housed in groups of four to five, and kept on a 12-hr light-dark cycle with lights off at 1800 hr. All animals had ad libitum access to chow (PMI LabDiet 5001) and water. Fracture surgeries were performed as previously described (Zeng Y, et al. (2020) Adv Mater. 32:e1906022). Animals were anesthetized by isoflurane and injected with 1 mg/kg buprenorphine SR-LAB (ZooPharm, Laramie, WY). Each mouse was then placed in a supine position with the right tibia disinfected. After skin incision and reflection, proximal to the right knee, a 0.7-mm pin was inserted from the tibial plateau through the medullary cavity to stabilize the tibia, and a cut was made at the tibial midshaft to induce a transverse fracture. Bupivacaine (0.5%; Hospira, Lake Forest, IL) at ˜1 mg/kg body weight was applied at the surgical site following wound closure using 2 reflex clips (5 mm). For animals treated with control and adenosine-loaded macroporous hydrogels, macroporous hydrogels measuring approximately 5 mm (length)×3 mm (width)×1 mm (thick) containing either 1.05±0.1 mg adenosine (ADO) or no adenosine (CTL) were implanted adjacent to the fractures immediately. […] The animals were treated with the macroporous hydrogels with or without adenosine immediately following the fracture. In the cohorts for weight bearing and open field activity measurements, 1 animal from the control group and 1 animal from the treatment group were euthanized due to shift of the inserted pin following fracture.
Tibiae were collected, fixed in 4% PFA at 4° C. for 1 day, and rinsed with PBS. The fixed samples were placed in 50-mL centrifuge tubes with styrofoam spacers and loaded into a microcomputed tomography (microCT) scanner (vivaCT 80, Scanco Medical, Wayne, PA). The samples were scanned at 55 keV at a pixel resolution of 10.4 μm. The reconstruction of the images was performed using microCT Evaluation Program V6.6 (Scanco Medical), followed by generation of radiographs and 3D models using microCT Ray V4.0 (Scanco Medical). Total volume (TV), bone volume (BV) per total volume (TV) (% BV/TV), and bone mineral density (BMD) was quantified using the phantom as a reference based on 100 contiguous slices.

Test [3] relates to mouse model of stabilized unilateral tibial fracture. The experiment in a line: Static weight bearing (incapacitance meter) after tibial fracture. It counts as in vivo. Conditions: for ipsilateral weight bearing vs pre-fracture baseline: adenosine-loaded hydrogel at fracture site. The protocol: as §1, §2
[4] abbreviates: 7 dpf, sum over 60 min, ratio post-/pre-fracture.

`Nc1ncnc2c1ncn2[C@@H]1O[C@H](CO)[C@@H](O)[C@H]1O` [adenosine]: the “effect size of treatment on open field parameters” value in test [1] (7 dpf, effect size r and Cohen's d, all measured parameters) is reported as “large effect sizes”. Moreover, in test [1] (setting [4]), the “ambulatory activity counts vs control” value was “significantly higher”, the “ambulatory time vs control” value is “significantly higher”, the “rest time vs control” value is reported as “lower” and the “total distance vs control” value is “significantly higher”. In test [1] (setting [4]), the “vertical activity counts vs control” value is “significantly higher” and the “vertical movement time vs control” value was “significantly higher”. Moreover, the “open field activity vs control at 5-min intervals (vertical, ambulatory, distance; lower rest time)” value in test [1] (7 days post-fracture, most of the 5-min intervals, ratio post-/pre-fracture) was “higher levels of activity”. In addition, in test [2], the “callus size (microCT)” value is given as “smaller calluses”, the “cortical bone bridging (microCT)” value is “improved bridging of cortical bone with less trabecular bone” and the “total volume (TV) of regenerating calluses vs control” value is on record as “lower”. In addition, the “fracture healing (microCT images and radiographs)” value in test [2] (local delivery) is listed as “accelerated”. Besides, in test [3] (2 dpf and 4 dpf), the “degree of decrease in weight bearing vs untreated group” value is on record as “less” and the “percent change in weight bearing from baseline” value was “significant decreases”. Further, in test [3] (8 dpf), the “percent change in weight bearing from baseline” value is on record as “returned to baseline”. In test [3] (2 days post-fracture), the “ipsilateral weight bearing vs pre-fracture baseline” value is given as “significantly decreased”. Besides, the “ipsilateral weight bearing vs pre-fracture baseline” value in test [3] (by 8 days post-fracture) is reported as “returned back to the baseline”. Further, in test [3] (each timepoint, effect size r), the “effect size of treatment on weight bearing” value is “large effect size”. The “ipsilateral hindlimb weight bearing vs control-treated limbs” value in test [3] (hydrogel with 1.05±0.1 mg adenosine implanted next to fracture, all post-fracture timepoints (2, 4, 8 dpf)) is recorded as “significantly higher”.

The record behind these values is patent publication US20250152616A1, “COMPOSITIONS FOR AND METHODS OF TREATING, PREVENTING, AND/OR MITIGATING PAIN” (Duke University, priority 2022, published 2025).
